Assays:
Assay in all cases: Ambit KinomeScan screening
Format in all cases: binding
Conditions in all cases: CAL-130 10 μM
ABL1(F317I) = target: T1, ABL1(F317I) (Homo sapiens, UniProt P00519, F317I)
T1 construct: unspecified tag ("tagged kinases"); purchased Ambit (KinomeScan screening)
How it was run: (§1)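 Displacement of tagged kinase from bait ligand on solid support was assessed using 10 μM CAL-130. Each value is the fraction of control binding retained, expressed in percent; a cutoff of >35% defines no hit.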

ABL1(Q252H) = target: T2, ABL1(Q252H) (Homo sapiens, UniProt P00519, Q252H)
T2 construct: unspecified tag ("tagged kinases"); purchased Ambit (KinomeScan screening)
How it was run: as §1

ACVR1B = target: T3, ACVR1B (Homo sapiens, UniProt P36896)
T3 construct: unspecified tag ("tagged kinases"); purchased Ambit (KinomeScan screening)
How it was run: as §1

ANKK1 = target: T4, ANKK1 (Homo sapiens, UniProt Q8NFD2)
T4 construct: purchased Ambit (KinomeScan screening)
How it was run: as §1

AURKA = target: T5, AURKA (Homo sapiens, UniProt O14965)
T5 construct: purchased Ambit (KinomeScan screening service)
How it was run: as §1

AURKB = target: T6, AURKB (Homo sapiens, UniProt Q96GD4)
T6 construct: purchased Ambit (KinomeScan screening service)
How it was run: as §1

BTK = target: T7, BTK (Homo sapiens, UniProt Q06187)
T7 construct: unspecified tag ("tagged kinases"); purchased Ambit (KinomeScan screening)
How it was run: as §1

CLK1 = target: T8, CLK1 (Homo sapiens, UniProt P49759)
T8 construct: purchased Ambit (KinomeScan screening service)
How it was run: as §1

DDR2 = target: T9, DDR2 (Homo sapiens, UniProt Q16832)
T9 construct: unspecified tag ("tagged kinases"); purchased Ambit (KinomeScan screening service)
How it was run: as §1

EPHA3 = target: T10, EPHA3 (Homo sapiens, UniProt P29320)
T10 construct: purchased Ambit (KinomeScan screening service)
How it was run: as §1

EPHA6 = target: T11, EPHA6 (Homo sapiens, UniProt Q9UF33)
T11 construct: purchased Ambit (KinomeScan screening service)
How it was run: as §1

FER = target: T12, FER (Homo sapiens, UniProt P16591)
T12 construct: unspecified tag ("tagged kinases"); purchased Ambit (KinomeScan screening service)
How it was run: as §1

GRK4 = target: T13, GRK4 (Homo sapiens, UniProt P32298)
T13 construct: unspecified tag ('tagged kinases'); purchased Ambit (KinomeScan screening service)
How it was run: as §1

IGF1R = target: T14, IGF1R (Homo sapiens, UniProt P08069)
T14 construct: Ambit (KinomeScan screening)
How it was run: as §1

JAK1(JH1domain) = target: T15, JAK1(JH1domain) (Homo sapiens, UniProt P23458)
T15 construct: JAK1(JH1domain); purchased Ambit (KinomeScan screening)
How it was run: as §1

JNK3 = target: T16, JNK3 (Homo sapiens, UniProt P53779)
T16 construct: purchased Ambit (KinomeScan screening)
How it was run: as §1

LKB1 = target: T17, LKB1 (Homo sapiens, UniProt Q15831)
T17 construct: unspecified tag ('tagged kinases'); purchased Ambit (KinomeScan screening service)
How it was run: as §1

MARK3 = target: T18, MARK3 (Homo sapiens, UniProt P27448)
T18 construct: purchased Ambit (KinomeScan screening)
How it was run: as §1

MST1 = target: T19, MST1 (Homo sapiens, UniProt Q13043)
T19 construct: unspecified tag ('tagged kinases'); purchased Ambit (KinomeScan screening)
How it was run: as §1

MYLK2 = target: T20, MYLK2 (Homo sapiens, UniProt Q9H1R3)
T20 construct: unspecified tag; purchased Ambit (KinomeScan screening panel)
How it was run: as §1

NLK = target: T21, NLK (Homo sapiens, UniProt Q9UBE8)
T21 construct: purchased Ambit (KinomeScan screening service)
How it was run: as §1

PAK6 = target: T22, PAK6 (Homo sapiens, UniProt Q9NQU5)
T22 construct: tag (kind not specified); purchased Ambit (KinomeScan screening service)
How it was run: as §1

PIK4CB = target: T23, PIK4CB (Homo sapiens, UniProt Q9UBF8)
T23 construct: unspecified tag; purchased Ambit (KinomeScan screening panel)
How it was run: as §1

PRKX = target: T24, PRKX (Homo sapiens, UniProt P51817)
T24 construct: tag (kind not specified); purchased Ambit (KinomeScan screening service)
How it was run: as §1

STK16 = target: T25, STK16 (Homo sapiens, UniProt O75716)
T25 construct: purchased Ambit (KinomeScan screening service)
How it was run: as §1

STK33 = target: T26, STK33 (Homo sapiens, UniProt Q9BYT3)
T26 construct: purchased Ambit (KinomeScan screening service)
How it was run: as §1

SgK085 = target: T27, SgK085 (Homo sapiens, UniProt Q86YV6)
T27 construct: tag, kind not specified; purchased Ambit (KinomeScan screening service)
How it was run: as §1

TAK1 = target: T28, TAK1 (Homo sapiens, UniProt O43318)
T28 construct: tag (kind not specified); purchased Ambit (KinomeScan screening service)
How it was run: as §1

TAOK3 = target: T29, TAOK3 (Homo sapiens, UniProt Q9H2K8)
T29 construct: tag (kind not specified); purchased Ambit (KinomeScan screening service)
How it was run: as §1

TGFBR1 = target: T30, TGFBR1 (Homo sapiens, UniProt P36897)
T30 construct: unspecified tag (tagged kinase); purchased Ambit (KinomeScan screening)
How it was run: as §1

TLK2 = target: T31, TLK2 (Homo sapiens, UniProt Q86UE8)
T31 construct: unspecified tag (tagged kinase); purchased Ambit (KinomeScan screening)
How it was run: as §1

TSSK1B = target: T32, TSSK1B (Homo sapiens, UniProt Q9BXA7)
T32 construct: tag, kind not specified; purchased Ambit (KinomeScan screening service)
How it was run: as §1

TYK2(JH2domain) = target: T33, TYK2(JH2domain) (Homo sapiens, UniProt P29597)
T33 construct: TYK2(JH2domain); tag, kind not specified; purchased Ambit (KinomeScan screening service)
How it was run: as §1

TYRO3 = target: T34, TYRO3 (Homo sapiens, UniProt Q06418)
T34 construct: tag, kind not specified; purchased Ambit (KinomeScan screening service)
How it was run: as §1

ULK2 = target: T35, ULK2 (Homo sapiens, UniProt Q8IYT8)
T35 construct: tag, kind not specified; purchased Ambit (KinomeScan screening service)
How it was run: as §1

p38-β = target: T36, p38-β (Homo sapiens, UniProt Q15759)
T36 construct: purchased Ambit (KinomeScan screening service)
How it was run: as §1

Measured: Percent of Control Binding

T31 sequence (Q86UE8 whole entry): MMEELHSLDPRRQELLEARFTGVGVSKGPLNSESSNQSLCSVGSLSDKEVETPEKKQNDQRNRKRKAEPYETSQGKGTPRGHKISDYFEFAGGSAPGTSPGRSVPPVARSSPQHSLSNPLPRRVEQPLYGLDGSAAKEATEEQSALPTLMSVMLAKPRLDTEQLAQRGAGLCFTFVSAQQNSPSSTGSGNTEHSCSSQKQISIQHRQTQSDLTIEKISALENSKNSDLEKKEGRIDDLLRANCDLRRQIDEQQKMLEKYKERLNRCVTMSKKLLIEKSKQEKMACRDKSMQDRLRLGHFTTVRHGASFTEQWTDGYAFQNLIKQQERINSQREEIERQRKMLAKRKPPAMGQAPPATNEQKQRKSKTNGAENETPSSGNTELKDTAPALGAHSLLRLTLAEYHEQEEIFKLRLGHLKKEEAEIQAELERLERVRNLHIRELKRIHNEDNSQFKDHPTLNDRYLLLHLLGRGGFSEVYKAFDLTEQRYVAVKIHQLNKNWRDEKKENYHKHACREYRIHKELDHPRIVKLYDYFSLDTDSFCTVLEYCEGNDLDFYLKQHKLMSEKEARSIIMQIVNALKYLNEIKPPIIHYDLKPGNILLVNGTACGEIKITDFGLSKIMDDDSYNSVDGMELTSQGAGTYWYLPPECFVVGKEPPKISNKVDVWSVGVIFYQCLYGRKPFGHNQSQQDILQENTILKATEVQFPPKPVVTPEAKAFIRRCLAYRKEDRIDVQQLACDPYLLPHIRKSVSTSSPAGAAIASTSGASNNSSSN
T9 sequence (Q16832 22-855): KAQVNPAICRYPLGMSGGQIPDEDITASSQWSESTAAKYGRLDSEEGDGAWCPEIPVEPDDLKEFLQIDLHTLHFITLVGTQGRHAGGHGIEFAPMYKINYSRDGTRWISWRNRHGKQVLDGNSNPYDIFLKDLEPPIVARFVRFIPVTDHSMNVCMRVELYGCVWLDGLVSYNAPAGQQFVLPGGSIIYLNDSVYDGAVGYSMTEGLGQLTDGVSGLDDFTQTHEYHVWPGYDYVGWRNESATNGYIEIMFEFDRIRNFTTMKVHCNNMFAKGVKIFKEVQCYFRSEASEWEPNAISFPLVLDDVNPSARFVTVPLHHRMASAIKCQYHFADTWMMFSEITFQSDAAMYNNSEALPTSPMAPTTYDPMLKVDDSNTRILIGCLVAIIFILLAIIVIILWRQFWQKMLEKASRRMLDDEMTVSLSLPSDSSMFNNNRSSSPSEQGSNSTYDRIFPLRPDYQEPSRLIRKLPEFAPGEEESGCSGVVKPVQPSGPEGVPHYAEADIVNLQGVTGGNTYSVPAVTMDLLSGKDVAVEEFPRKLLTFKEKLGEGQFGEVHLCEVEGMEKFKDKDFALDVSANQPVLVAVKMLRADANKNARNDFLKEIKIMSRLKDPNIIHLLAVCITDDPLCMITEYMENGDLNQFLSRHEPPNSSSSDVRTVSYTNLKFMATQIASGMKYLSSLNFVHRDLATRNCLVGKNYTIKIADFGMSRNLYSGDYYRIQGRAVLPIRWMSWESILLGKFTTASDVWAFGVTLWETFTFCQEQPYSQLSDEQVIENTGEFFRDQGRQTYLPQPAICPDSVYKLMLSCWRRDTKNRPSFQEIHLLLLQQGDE
T3 sequence (P36896 24-505): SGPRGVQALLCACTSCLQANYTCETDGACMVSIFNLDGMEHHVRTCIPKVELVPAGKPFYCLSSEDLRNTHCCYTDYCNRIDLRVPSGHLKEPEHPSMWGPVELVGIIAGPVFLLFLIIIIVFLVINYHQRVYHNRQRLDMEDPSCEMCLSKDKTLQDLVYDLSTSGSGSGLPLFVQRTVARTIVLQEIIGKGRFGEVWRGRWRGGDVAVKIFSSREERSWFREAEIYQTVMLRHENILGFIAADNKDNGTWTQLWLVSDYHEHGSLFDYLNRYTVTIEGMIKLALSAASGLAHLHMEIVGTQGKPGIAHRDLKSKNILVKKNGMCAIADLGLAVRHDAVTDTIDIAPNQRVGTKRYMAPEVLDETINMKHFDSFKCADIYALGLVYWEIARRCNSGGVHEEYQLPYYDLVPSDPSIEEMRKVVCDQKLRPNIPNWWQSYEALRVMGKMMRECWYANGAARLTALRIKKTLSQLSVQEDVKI
T29 sequence (Q9H2K8 whole entry): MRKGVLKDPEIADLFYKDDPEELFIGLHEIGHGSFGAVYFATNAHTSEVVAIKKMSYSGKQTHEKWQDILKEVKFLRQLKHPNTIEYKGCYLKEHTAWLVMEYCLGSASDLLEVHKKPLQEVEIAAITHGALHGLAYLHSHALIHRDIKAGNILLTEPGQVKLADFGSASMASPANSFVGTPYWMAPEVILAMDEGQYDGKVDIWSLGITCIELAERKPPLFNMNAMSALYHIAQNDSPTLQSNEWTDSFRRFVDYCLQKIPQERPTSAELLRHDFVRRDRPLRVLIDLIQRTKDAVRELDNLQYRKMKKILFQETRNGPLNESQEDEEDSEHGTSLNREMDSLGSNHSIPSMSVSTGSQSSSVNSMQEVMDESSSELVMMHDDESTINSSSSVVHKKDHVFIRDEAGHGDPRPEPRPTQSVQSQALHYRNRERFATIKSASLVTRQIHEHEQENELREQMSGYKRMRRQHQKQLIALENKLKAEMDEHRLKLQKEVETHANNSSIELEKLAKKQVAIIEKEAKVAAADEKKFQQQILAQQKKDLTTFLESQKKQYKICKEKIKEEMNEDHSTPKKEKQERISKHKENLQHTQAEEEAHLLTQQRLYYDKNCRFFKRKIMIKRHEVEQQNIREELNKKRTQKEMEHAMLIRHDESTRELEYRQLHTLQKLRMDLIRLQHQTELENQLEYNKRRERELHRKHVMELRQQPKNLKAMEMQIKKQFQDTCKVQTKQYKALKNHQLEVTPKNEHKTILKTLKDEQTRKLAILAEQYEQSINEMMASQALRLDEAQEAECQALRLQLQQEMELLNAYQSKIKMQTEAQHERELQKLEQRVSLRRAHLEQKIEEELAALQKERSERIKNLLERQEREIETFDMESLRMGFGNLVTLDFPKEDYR
T8 sequence (P49759 whole entry): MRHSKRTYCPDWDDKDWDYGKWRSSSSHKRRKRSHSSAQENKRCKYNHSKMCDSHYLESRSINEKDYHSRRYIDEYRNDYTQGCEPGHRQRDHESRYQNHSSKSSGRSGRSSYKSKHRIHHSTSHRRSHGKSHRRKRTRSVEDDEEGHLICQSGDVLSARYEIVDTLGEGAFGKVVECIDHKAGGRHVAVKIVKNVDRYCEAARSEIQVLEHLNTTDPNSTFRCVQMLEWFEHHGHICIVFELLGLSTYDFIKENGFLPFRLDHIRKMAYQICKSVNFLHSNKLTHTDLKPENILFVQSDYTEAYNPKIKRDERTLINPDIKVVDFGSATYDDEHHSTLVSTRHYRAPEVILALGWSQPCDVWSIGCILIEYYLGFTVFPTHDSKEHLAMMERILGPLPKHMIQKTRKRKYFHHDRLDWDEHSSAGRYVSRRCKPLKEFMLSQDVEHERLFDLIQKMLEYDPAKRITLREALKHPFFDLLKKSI
T16 sequence (P53779 whole entry): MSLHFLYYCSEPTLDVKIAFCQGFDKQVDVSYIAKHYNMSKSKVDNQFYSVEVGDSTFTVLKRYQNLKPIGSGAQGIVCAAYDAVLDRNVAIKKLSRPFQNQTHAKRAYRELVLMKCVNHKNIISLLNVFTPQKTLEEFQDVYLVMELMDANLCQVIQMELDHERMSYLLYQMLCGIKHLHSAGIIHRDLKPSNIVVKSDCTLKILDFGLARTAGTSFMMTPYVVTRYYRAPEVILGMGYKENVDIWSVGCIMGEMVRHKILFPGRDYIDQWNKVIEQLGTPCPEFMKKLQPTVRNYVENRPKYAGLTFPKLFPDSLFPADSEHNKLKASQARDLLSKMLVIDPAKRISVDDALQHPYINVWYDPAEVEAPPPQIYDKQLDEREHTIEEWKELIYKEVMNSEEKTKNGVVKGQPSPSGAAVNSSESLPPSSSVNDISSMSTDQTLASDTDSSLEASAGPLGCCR
T7 sequence (Q06187 whole entry): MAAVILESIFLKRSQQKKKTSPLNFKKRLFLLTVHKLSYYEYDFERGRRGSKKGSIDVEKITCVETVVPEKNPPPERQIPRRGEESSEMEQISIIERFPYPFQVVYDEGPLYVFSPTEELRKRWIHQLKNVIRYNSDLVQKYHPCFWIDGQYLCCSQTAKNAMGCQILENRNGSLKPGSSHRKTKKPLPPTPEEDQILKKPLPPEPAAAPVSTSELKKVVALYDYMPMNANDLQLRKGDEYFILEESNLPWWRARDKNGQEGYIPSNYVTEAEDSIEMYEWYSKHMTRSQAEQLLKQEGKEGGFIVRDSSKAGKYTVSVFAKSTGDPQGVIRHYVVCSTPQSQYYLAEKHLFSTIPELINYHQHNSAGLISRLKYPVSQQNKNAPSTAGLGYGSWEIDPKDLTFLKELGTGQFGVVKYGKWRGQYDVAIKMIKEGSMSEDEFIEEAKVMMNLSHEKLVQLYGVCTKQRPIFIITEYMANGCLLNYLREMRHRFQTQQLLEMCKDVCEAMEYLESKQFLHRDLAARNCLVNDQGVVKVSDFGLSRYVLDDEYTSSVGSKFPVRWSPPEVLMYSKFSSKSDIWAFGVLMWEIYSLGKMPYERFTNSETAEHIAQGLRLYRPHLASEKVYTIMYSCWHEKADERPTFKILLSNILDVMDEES
T32 sequence (Q9BXA7 whole entry): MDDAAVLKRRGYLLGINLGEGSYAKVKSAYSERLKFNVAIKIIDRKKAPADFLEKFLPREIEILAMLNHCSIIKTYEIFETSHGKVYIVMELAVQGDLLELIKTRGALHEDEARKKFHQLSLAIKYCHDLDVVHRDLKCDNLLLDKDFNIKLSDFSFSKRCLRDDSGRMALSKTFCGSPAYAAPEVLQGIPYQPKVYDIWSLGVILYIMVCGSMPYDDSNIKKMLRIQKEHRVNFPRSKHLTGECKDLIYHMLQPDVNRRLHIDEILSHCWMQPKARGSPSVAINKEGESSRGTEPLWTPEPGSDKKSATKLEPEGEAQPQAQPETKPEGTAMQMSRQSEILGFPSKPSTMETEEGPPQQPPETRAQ

Cc1ccccc1-n1c(C(C)Nc2nc(N)nc3nc[nH]c23)nc2cccc(C)c2c1=O (stereo not drawn) [CAL-130]
100%: all assays above
